Target: T1, full-length ATR (Homo sapiens, UniProt Q13535)
T1 construct: Assays were carried out at 25° C. in the presence of 5 nM full-length ATR
Assay: ATR Inhibition Assay (radioactive-phosphate incorporation)
Type: biochemical
Conditions: for ATR Ki: Ki(app), 5 nM full-length ATR, 10 μM [γ-33P]ATP, 800 μM target peptide, 25° C.

T1 sequence (Q13535 whole entry): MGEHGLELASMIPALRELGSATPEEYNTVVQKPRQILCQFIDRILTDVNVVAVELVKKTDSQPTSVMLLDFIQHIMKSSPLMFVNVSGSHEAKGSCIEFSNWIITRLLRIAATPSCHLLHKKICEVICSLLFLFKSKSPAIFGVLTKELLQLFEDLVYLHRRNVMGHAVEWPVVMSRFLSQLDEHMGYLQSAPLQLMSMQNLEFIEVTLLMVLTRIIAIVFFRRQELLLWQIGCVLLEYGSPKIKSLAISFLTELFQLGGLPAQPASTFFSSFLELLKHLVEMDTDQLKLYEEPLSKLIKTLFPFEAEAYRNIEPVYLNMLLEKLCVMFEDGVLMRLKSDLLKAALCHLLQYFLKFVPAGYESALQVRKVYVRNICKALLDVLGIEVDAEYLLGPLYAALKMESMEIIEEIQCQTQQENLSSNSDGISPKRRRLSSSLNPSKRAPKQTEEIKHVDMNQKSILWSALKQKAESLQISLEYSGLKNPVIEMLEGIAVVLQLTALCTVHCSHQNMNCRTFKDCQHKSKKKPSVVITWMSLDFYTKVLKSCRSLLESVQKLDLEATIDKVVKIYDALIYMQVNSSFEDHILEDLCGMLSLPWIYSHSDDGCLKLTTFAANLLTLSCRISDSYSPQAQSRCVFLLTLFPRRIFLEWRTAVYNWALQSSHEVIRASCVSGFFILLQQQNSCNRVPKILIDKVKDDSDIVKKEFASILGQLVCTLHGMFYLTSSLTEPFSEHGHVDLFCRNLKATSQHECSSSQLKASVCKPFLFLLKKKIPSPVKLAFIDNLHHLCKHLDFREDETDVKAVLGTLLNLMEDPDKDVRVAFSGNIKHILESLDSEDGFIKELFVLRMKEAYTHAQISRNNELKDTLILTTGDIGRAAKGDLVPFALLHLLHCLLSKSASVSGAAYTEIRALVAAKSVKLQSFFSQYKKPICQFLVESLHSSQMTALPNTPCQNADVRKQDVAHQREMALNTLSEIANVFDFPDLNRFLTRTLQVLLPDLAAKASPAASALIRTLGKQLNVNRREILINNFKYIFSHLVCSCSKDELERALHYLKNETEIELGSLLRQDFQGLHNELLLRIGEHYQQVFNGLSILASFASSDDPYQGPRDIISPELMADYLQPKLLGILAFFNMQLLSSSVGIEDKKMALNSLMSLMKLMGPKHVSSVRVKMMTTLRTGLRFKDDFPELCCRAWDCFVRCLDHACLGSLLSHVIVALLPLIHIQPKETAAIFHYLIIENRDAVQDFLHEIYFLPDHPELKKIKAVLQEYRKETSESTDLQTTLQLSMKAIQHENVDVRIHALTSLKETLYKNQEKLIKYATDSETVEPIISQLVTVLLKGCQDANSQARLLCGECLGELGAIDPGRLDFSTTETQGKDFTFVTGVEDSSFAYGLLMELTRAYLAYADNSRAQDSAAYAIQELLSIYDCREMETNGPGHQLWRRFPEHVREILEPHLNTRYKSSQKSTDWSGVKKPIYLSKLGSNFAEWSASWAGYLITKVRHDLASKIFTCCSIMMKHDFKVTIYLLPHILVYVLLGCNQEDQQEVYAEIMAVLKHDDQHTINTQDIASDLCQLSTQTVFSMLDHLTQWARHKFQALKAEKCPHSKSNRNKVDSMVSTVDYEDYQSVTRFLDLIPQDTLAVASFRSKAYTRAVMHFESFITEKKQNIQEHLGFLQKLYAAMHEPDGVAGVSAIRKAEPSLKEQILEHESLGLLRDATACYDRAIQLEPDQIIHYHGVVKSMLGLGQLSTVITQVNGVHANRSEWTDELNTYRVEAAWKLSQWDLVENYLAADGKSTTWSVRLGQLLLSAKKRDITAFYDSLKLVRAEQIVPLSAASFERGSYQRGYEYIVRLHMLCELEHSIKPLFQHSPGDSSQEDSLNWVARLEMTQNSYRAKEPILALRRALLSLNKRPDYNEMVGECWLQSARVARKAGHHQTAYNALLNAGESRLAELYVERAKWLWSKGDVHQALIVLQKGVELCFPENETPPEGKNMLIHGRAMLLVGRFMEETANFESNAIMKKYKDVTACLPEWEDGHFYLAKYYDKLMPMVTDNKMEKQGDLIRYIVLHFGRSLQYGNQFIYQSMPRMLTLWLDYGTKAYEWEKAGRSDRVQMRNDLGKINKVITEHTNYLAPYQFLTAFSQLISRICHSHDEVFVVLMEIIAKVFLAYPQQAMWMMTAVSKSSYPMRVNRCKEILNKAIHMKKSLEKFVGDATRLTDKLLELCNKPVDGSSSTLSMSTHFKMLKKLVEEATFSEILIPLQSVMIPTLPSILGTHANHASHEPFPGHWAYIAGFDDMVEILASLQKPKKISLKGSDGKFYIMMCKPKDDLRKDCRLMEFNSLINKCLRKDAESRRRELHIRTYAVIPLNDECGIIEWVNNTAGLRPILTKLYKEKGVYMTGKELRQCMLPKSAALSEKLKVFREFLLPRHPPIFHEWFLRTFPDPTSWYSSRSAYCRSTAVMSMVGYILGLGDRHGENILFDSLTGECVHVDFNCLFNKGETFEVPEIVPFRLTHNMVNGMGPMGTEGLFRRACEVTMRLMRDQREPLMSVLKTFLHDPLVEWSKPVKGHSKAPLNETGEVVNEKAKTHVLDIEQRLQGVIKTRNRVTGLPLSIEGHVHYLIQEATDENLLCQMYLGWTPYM

Row | Compound | Ki | ATR Ki
1 | CC(C)(C#N)c1cc(-c2cnc(N)c(-c3nnc(-c4cc5c(s4)CCNC5)o3)n2)ccn1 [Compound I-96] | < 1 nM | 
2 | CC(C)(C#N)c1cc(-c2cnc(N)c(-c3cc(-c4ccc(CN[C@H]5CCOC5)cc4)no3)n2)ccn1 [Compound I-97] | < 1 nM | 
3 | CC(C)(C#N)c1cc(-c2cnc(N)c(-c3nnc(-c4ccc(C5COCCN5)cc4)o3)n2)ccn1 (stereo not shown) [Compound I-99] | 20 to 100 nM | 
4 | CN1CCN(Cc2ccc(-c3nnc(-c4nc(-c5ccnc(C(C)(C)C#N)c5)cnc4N)o3)cc2)CC1 [Compound I-100] | 5 to 20 nM | 
5 | N#CC1(c2cc(-c3cnc(N)c(-c4nnc(-c5cccs5)o4)n3)ccn2)CCNCC1 [Compound I-101] |  | +++ (Compounds with a Ki value >5 nM but ≦1 nM are marked with “+++.”)
6 | CC(C)(C#N)c1cc(-c2cnc(N)c(-c3cc(-c4ccc(CNCC5COC5)cc4)no3)n2)ccn1 [Compound I-102] | < 1 nM | 
7 | CN(C)CCNc1ccc(-c2nnc(-c3nc(-c4ccnc(C(C)(C)C#N)c4)cnc3N)o2)c(F)c1 [Compound I-103] | 20 to 100 nM | 
8 | CC(C)(C#N)c1cc(-c2cnc(N)c(-c3nnc(-c4ccc(NCC5CNC5)cc4)o3)n2)ccn1 [Compound I-104] | < 1 nM | 
9 | CC(C)(C#N)c1cc(-c2cnc(N)c(-c3nnc(-c4ccc(CNCC5COC5)cc4)o3)n2)ccn1 [Compound I-105] | < 1 nM | 
10 | CC(C)(C#N)c1cc(-c2cnc(N)c(-c3nnc(-c4ccc(O[C@H]5CCNC5)cc4)o3)n2)ccn1 [Compound I-106] |  | +++ (Compounds with a Ki value >5 nM but ≦1 nM are marked with “+++.”)
11 | CC(C)(C#N)c1cc(-c2cnc(N)c(-c3nnc(-c4ccc(NC5CNC5)cc4)o3)n2)ccn1 [Compound I-107] | < 1 nM | 
12 | CN(C)CCNc1cc(F)ccc1-c1nnc(-c2nc(-c3ccnc(C(C)(C)C#N)c3)cnc2N)o1 [Compound I-108] | < 1 nM | 
13 | CC(C)(C#N)c1cc(-c2cnc(N)c(-c3nnc(-c4ccc(C5CCNCC5)cc4)o3)n2)ccn1 [Compound I-109] |  | +++ (Compounds with a Ki value >5 nM but ≦1 nM are marked with “+++.”)
14 | CC(C)(C#N)c1cc(-c2cnc(N)c(-c3nnc(-c4cccc(N5CC(N)C5)c4)o3)n2)ccn1 [Compound I-110] | < 1 nM | 
15 | CC(C)(C#N)c1cc(-c2cnc(N)c(-c3nnc(-c4cc5c(s4)CNCC5)o3)n2)ccn1 [Compound I-111] | < 1 nM | 
16 | CC(C)(C#N)c1cc(-c2cnc(N)c(-c3nnc(-c4ccc(OCCN)cc4)o3)n2)ccn1 [Compound I-112] | < 1 nM | 
17 | CC(C)(C#N)c1cc(-c2cnc(N)c(-c3nnc(-c4ccc(OC5CNC5)cc4)o3)n2)ccn1 [Compound I-113] | < 1 nM | 
18 | CN(C)CCNc1ccc(-c2nnc(-c3nc(-c4ccnc(C(C)(C)C#N)c4)cnc3N)o2)cc1 [Compound I-114] |  | +++ (Compounds with a Ki value >5 nM but ≦1 nM are marked with “+++.”)
19 | CCOC(=O)C(C)(C)c1cc(-c2cnc(N)c(-c3cc(-c4ccccc4)no3)n2)ccn1 [Compound I-115] |  | +++ (Compounds with a Ki value >5 nM but ≦1 nM are marked with “+++.”)
20 | CC(C)(C#N)c1cc(-c2cnc(N)c(-c3nnc(-c4ccc(NCCN5CCOCC5)cc4)o3)n2)ccn1 [Compound I-116] | < 1 nM | 

Row | Compound | Ki | ATR Ki
21 | CNCCNc1ccc(-c2nnc(-c3nc(-c4ccnc(C(C)(C)C#N)c4)cnc3N)o2)cc1 [Compound I-117] | < 1 nM | 
22 | CC(C)(C#N)c1cc(-c2cnc(N)c(-c3nnc(-c4ccc(N5CCC5)cc4)o3)n2)ccn1 [Compound I-118] |  | +++ (Compounds with a Ki value >5 nM but ≦1 nM are marked with “+++.”)
23 | CN1CC(Oc2ccc(-c3nnc(-c4nc(-c5ccnc(C(C)(C)C#N)c5)cnc4N)o3)cc2)C1 [Compound I-121] | < 1 nM | 
24 | CC(C)(C#N)c1cc(-c2cnc(N)c(-c3nnc(-c4ccc(CNC5CCCOC5)cc4)o3)n2)ccn1 (stereo not shown) [Compound I-122] | < 1 nM | 
25 | CC(C)(C#N)c1cc(-c2cnc(N)c(-c3nnc(-c4ccc(N5CC(N)C5)cc4)o3)n2)ccn1 [Compound I-123] | < 1 nM | 
26 | CC(C)(C#N)c1cc(-c2cnc(N)c(-c3nnc(-c4ccc(CNC5CCOCC5)cc4F)o3)n2)ccn1 [Compound I-124] | < 1 nM | 
27 | CC(C)(C#N)c1cc(-c2cnc(N)c(-c3nnc(-c4cccc(N5CCC(N)CC5)c4)o3)n2)ccn1 [Compound I-125] | 5 to 20 nM | 
28 | CC(C)(C#N)c1cc(-c2cnc(N)c(-c3nnc(-c4ccc(CNC5CCOCC5)cc4)o3)n2)ccn1 [Compound I-126] | < 1 nM | 
29 | CC(C)(C#N)c1cc(-c2cnc(N)c(-c3nnc(-c4ccc(C5=CCNCC5)cc4)o3)n2)ccn1 [Compound I-128] | < 1 nM | 
30 | CC(C)(C#N)c1cc(-c2cnc(N)c(-c3nnc(-c4ccc(C5=NCCN5)cc4)o3)n2)ccn1 [Compound I-129] |  | +++ (Compounds with a Ki value >5 nM but ≦1 nM are marked with “+++.”)
31 | CC(N)CNc1ccc(-c2nnc(-c3nc(-c4ccnc(C(C)(C)C#N)c4)cnc3N)o2)cc1 (stereo not shown) [Compound I-130] | < 1 nM | 
32 | CN(C)C1CN(c2ccc(-c3nnc(-c4nc(-c5ccnc(C(C)(C)C#N)c5)cnc4N)o3)cc2)C1 [Compound I-131] | < 1 nM | 
33 | CCCN(CCOC)C(=O)c1cc(-c2cnc(N)c(-c3cc(-c4ccccc4)no3)n2)ccn1 [Compound I-132] |  | +++ (Compounds with a Ki value >5 nM but ≦1 nM are marked with “+++.”)
34 | COc1ccccc1-c1nnc(-c2nc(-c3ccnc(C4(C#N)CCNCC4)c3)cnc2N)o1 [Compound I-133] | < 1 nM | 
35 | CC(C)(C#N)c1cc(-c2cnc(N)c(-c3nnc(-c4ccc(F)cc4F)o3)n2)ccn1 [Compound I-134] |  | +++ (Compounds with a Ki value >5 nM but ≦1 nM are marked with “+++.”)
36 | Nc1ncc(-c2ccnc(CO)c2)nc1-c1cc(-c2ccc(CNC3CCOCC3)cc2)no1 [Compound I-135] | < 1 nM | 
37 | N#CCc1cc(-c2cnc(N)c(-c3cc(-c4ccc(CNC5CCOCC5)cc4)no3)n2)ccn1 [Compound I-136] | < 1 nM | 
38 | N#CCc1cc(-c2cnc(N)c(-c3nnc(-c4ccc(CNC5CCOCC5)cc4)o3)n2)ccn1 [Compound I-137] | < 1 nM | 
39 | CC(C)(C#N)c1nccc(-c2cnc(N)c(-c3cc(-c4ccc(CNC5CCOCC5)cc4)no3)n2)c1F [Compound I-138] |  | +++ (Compounds with a Ki value >5 nM but ≦1 nM are marked with “+++.”)
40 | CC(C)(C#N)c1nccc(-c2cnc(N)c(-c3cc(-c4ccc(CNCC5COC5)cc4)no3)n2)c1F [Compound I-139] | 5 to 20 nM | 
